Bounds are passed on as bounds.

Data set [1] deals with T1, CYP2C19 (Homo sapiens, UniProt P33261). The format is in vitro ADME. Further details: purchased BD Biosciences Discovery Labware, Woburn, Mass; host or cells: baculovirus-infected insect cells. To be noted: 50 μM megestrol acetate, 20 pmol CYP2C19.
The target of another data set is T2, CYP2C8 (Homo sapiens, UniProt P10632).
T2 sequence (P10632 1-490): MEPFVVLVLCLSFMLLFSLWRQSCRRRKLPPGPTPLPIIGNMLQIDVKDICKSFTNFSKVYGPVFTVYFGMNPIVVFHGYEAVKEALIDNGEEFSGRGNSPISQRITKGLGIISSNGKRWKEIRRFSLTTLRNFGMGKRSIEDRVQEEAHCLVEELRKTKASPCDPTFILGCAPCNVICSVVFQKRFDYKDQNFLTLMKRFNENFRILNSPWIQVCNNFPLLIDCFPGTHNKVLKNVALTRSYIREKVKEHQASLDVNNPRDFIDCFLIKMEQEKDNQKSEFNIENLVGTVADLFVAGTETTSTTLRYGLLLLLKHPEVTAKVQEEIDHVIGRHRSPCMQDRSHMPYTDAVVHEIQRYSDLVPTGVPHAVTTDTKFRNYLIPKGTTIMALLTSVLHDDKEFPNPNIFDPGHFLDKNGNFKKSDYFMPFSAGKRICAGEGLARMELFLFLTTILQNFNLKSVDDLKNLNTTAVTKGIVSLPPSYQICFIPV
The format is in vitro ADME. Further details: purchased BD Biosciences Discovery Labware, Woburn, Mass; host or cells: baculovirus-infected insect cells. To be noted: 50 μM megestrol acetate, 20 pmol CYP2C8.

The next data set has as its target CYP3A4 (Homo sapiens, UniProt P08684). The format is in vitro ADME. To be noted: 50 μM megestrol acetate, microsomes, ketoconazole.
The target of the next data set is CYP2E1 (Homo sapiens, UniProt P05181). The format is in vitro ADME. Further details: purchased BD Biosciences Discovery Labware, Woburn, Mass; host or cells: baculovirus-infected insect cells. To be noted: 50 μM megestrol acetate, 20 pmol CYP2E1.
Chain of CYP2E1 (P05181 whole entry): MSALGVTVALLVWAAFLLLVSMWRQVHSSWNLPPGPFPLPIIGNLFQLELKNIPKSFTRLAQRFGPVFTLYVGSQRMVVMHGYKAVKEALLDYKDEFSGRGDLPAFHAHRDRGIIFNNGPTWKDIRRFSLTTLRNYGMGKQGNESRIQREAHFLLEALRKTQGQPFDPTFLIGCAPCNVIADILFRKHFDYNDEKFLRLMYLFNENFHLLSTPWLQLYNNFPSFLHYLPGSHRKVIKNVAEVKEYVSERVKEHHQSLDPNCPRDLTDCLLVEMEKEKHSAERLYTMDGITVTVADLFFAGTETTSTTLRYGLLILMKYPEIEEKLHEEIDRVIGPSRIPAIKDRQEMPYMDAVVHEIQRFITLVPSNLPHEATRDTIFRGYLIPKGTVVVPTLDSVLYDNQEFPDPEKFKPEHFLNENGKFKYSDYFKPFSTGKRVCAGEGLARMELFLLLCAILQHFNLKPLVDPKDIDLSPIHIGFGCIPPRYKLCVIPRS
Another data set concerns the target T3, CYP2B6 (Homo sapiens, UniProt P20813).
T3 sequence (P20813 1-491): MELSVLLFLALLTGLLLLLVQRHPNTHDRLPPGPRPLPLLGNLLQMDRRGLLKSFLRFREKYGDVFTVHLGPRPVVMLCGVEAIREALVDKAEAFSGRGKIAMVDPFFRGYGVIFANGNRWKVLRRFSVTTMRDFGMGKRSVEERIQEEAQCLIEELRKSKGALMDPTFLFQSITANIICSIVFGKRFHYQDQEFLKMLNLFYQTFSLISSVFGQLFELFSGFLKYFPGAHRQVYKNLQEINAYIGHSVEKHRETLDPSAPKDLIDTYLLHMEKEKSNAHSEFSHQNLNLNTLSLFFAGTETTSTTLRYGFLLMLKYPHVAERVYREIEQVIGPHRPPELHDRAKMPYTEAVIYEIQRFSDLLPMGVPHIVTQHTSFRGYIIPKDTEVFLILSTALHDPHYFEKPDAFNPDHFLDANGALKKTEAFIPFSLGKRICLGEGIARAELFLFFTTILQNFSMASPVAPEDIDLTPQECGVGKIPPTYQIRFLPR
The format is in vitro ADME. Further details: purchased BD Biosciences Discovery Labware, Woburn, Mass; host or cells: baculovirus-infected insect cells. To be noted: 50 μM megestrol acetate, 20 pmol CYP2B6.

The target of another data set is T4, CYP1A2 (Homo sapiens, UniProt P05177).
T4 sequence (P05177 1-516): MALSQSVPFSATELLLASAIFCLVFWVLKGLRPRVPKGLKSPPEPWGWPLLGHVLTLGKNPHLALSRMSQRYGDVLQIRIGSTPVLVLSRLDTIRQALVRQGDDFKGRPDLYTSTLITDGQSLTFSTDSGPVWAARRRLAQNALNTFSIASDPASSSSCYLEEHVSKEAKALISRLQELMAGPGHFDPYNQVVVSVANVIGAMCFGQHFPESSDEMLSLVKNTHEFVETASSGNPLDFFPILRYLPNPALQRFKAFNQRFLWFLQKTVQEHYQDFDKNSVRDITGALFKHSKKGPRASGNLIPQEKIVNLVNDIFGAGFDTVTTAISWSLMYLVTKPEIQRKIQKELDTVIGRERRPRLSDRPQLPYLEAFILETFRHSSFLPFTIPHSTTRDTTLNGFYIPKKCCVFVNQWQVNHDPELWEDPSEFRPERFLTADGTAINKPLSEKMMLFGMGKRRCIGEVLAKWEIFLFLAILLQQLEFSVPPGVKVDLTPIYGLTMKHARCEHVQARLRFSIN
The format is in vitro ADME. To be noted: 50 μM megestrol acetate, microsomes.

Data set [2] concerns the target T5, CYP2A6 (Homo sapiens, UniProt P11509).
T5 sequence (P11509 1-494): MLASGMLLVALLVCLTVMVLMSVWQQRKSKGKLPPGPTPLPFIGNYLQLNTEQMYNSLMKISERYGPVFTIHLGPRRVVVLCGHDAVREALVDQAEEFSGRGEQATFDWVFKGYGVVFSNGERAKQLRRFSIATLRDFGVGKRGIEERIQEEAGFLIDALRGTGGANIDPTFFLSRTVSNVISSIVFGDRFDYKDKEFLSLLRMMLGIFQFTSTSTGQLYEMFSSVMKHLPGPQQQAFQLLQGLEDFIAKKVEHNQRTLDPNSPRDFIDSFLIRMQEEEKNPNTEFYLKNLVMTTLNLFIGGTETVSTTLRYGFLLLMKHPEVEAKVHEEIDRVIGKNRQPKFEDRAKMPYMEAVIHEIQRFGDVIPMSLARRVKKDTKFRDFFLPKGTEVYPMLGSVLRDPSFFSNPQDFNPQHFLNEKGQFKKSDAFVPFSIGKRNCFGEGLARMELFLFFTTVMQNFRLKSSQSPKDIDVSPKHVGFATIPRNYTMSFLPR
The format is in vitro ADME. To be noted: 50 μM megestrol acetate, 20 pmol CYP2A6. Further details: purchased BD Biosciences Discovery Labware, Woburn, Mass; host or cells: baculovirus-infected insect cells.

Data set [3] has as its system CYP2A6.
The target of data set [4] is T1, CYP2C19.
Method: The stock solutions were added to incubation mixtures to obtain the final concentrations of 5 and 50 μM, each containing 1% acetonitrile.
Microsomes were prepared by differential centrifugation of liver homogenates pooled from at least ten human donors.
After a 5 minute preincubation, nicotinamide adenine dinucleotide phosphate (NADPH) regenerating system (NRS; 1.7 mg/mL β-NADP, 7.8 mg/mL glucose-6-phosphate, and 6 units/mL glucose-6-phosphate dehydrogenase in 2% sodium bicarbonate solution) was added to initiate the reaction. The final incubation volume was 0.5 mL. Incubations were continued for 60 minutes.
All incubations were conducted at 37±1° C. in a shaking water bath. All incubations were carried out in triplicates.
After a 5-minute preincubation, 2% sodium bicarbonate solution was added to the incubation mixtures. The final incubation volume was 0.5 mL. Incubations were continued for 60 minutes.
Incubation reactions, including the matrix controls and metabolic negative controls, were terminated by adding 0.5 mL methanol.
The samples were analyzed on a Supelcosil LC-18 column (3μ, 120 Å, 3.0×100 mm).
Where [5] appears, read: human, microsomes, 60 min, pH 7.4.

T1 sequence (P33261 whole entry): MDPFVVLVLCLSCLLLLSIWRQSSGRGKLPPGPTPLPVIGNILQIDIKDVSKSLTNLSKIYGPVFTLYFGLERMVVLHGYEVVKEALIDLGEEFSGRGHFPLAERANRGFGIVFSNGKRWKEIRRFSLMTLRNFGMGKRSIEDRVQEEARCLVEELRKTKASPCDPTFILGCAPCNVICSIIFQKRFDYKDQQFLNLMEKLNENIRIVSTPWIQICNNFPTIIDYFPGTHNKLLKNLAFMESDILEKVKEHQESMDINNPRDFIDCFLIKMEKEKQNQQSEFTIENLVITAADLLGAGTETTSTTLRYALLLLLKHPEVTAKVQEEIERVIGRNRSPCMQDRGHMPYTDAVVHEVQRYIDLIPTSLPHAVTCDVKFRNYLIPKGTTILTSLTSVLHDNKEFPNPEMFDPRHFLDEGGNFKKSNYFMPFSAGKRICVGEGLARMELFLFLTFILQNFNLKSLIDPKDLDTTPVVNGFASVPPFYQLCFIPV
Chain of CYP3A4 (P08684 whole entry): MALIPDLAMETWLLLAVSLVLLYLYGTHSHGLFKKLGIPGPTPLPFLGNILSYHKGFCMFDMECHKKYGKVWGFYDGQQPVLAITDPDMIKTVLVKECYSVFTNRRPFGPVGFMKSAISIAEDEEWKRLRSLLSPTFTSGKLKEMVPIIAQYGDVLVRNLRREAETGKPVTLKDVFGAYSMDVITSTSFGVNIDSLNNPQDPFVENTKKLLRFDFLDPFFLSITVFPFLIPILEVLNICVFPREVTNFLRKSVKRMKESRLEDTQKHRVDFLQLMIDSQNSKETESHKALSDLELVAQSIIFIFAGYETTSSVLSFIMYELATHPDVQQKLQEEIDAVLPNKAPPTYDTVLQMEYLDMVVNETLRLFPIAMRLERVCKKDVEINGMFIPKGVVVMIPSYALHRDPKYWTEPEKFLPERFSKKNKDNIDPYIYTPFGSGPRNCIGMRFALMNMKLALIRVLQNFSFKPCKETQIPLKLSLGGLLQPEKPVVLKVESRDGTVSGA

With `CC(=O)O[C@]1(C(C)=O)CC[C@H]2[C@@H]3C=C(C)C4=CC(=O)CC[C@]4(C)[C@H]3CC[C@@]21C` [Megestrol Acetate, 17 α-acetyloxy-6-methylpregna-4,6-diene-3,20-dione], on CYP2C19 [1], the metabolites detected was 1.14%. At CYP2C8, the “megestrol acetate converted to its metabolites” value amounted to 0.72%. In addition, the results for the “difference in metabolism in the presence or absence of the inhibitor (LC/MS)” value on CYP3A4 and at CYP1A2 were “a significant difference in metabolism” and “no significant difference in metabolism”, respectively. In addition, the metabolites formed entry is listed as “no metabolites were detected” on CYP2E1 and “no metabolites were formed” at CYP2A6 [2]. At CYP2B6, the metabolites observed was 1.23%. Further, the figures for the “percent metabolized in presence vs absence of inhibitor (unpaired two-tailed t-test)” value in the data set with CYP2A6 [3] and at CYP2C19 [4] were “less than that of the percentage of megestrol acetate metabolized in the absence of the inhibitor” and “not different from the percentage of megestrol acetate metabolized in the absence of the inhibitor”, respectively. In addition, the “metabolized in pooled human liver microsomes” value with CYP2A6 [3] (setting [5]) and at CYP2C19 [4] (setting [5]) was greater than 20% in each case.

The values are drawn from patent US8067042B1 (Mutual Pharmaceutical Company, Inc., priority 2007, dated 2011).
